Consider two molecules from US8647824B2, “Microbial reductive dehalogenation of vinyl chloride” (The Board of Trustees of the Leland Stanford Junior …, priority 2004, dated 2014).

The test system of test [1] is highly enriched culture of strain VS. Briefly: Batch dechlorination and growth, highly enriched culture of strain VS. The note with it: for Final VC rate / Final cells: after utilization of the substance; for Final VC rate / Mass dechlorinated: duplicate bottles; for Final cells: duplicates, computed from VC rate; for Initial VC rate: before utilization of the substance, average and range of replicates; for Growth yield by competitive PCR: strain VS grown on the substance. In kind it is cell-based, Dehalococcoides species strain VS. The method, then: (§1) The purpose of the second study was to compare dechlorination rates of PCE, TCE and DCE between the three different cultures that grew on VC (Victoria, KB-1/VC and Pinellas). The development of inocula here was performed with VC, just as in the first study. For the growth and substrate utilization experiments, triplicate bottles were set up for each culture containing 1 mL of inoculum and either neat PCE (0.4 μL), neat TCE (0.3 μL), saturated DCE solution (34 μL) or gaseous VC (200 μL). To further investigate TCE removal, bottles (120 mL) were filled with 20 mL of a highly enriched culture of strain VS made from the Victoria culture. Duplicate bottles were supplied with gaseous VC (50 μL on day 0, then 150 μL on day 3) or TCE (0.4 μL neat liquid). Dechlorination was followed until all VC or TCE was converted to ethene (day 12). The change in strain VS concentration during VC and TCE utilization was then determined both by competitive PCR and by an activity procedure evaluated previously for strain VS. In the activity procedure a non-growth limiting concentration of VC (150 μL) along with excess hydrogen is added to a culture and the initial dechlorination rate is measured (over <1 day). A good estimate of strain VS concentration can then be obtained using the previously determined strain VS maximum VC utilization rate (7.8×10^−10 μmol Cl^− (cell·d)^−1). The increase in strain VS concentration during TCE or VC utilization was determined with these two procedures on the culture before and after TCE and VC utilization.
Comparative dechlorination and growth kinetics. With mixed cultures, the concentration of organisms carrying out a particular reaction is generally unknown and difficult to determine. Thus, reaction rates with mixed cultures are generally reported in units that cannot be used for comparative purposes. For example, dechlorination rates have been reported in mass removal rate per microcosm or bottle, per unit liquid volume, per unit of total biomass or per unit of total protein. However, the approach described here allows us to make direct comparisons of basic dechlorination and growth kinetics between cultures. The main parameter used in this comparison is organism maximum growth rate, which is directly related to dechlorination kinetics. The maximum growth rate for each culture was determined from a least-squares model fit to experimental data. For this purpose, the dechlorination of TCE, DCE, and VC was modeled using Monod kinetics with competitive kinetics between the multiple electron acceptors involved in dechlorination (for the case when electron donor is non-rate-limiting):
Modeling approach. The above procedure was utilized to compare VC, DCE and TCE maximum growth rates between the Dehalococcoides like-microorganisms in the three cultures (strain VS, KB-1/VC and Pinellas). Previously determined VC and DCE half-velocity and competitive coefficients were included in this modeling approach (Table 2). Also, a previously determined decay coefficient (0.05 d^−1) for cells growing under optimal conditions (non-limiting electron acceptor and donor) was included. This leaves the maximum growth rates on individual chlorinated ethenes (μV, μD, or μT) as the only fitting parameters, which were determined, together with the 95% confidence interval) using non-linear least-squares fit to the experimental data.
DNA isolation and competitive PCR. For the Victoria, Pinellas, and KB-1/VC genomic DNA was extracted (1 mL) from the inoculum used in the VC growth comparison study and also from cultures in the comparative substrate utilization study following complete TCE dechlorination. DNA was extracted using a DNeasy® tissue system (Qiagen Inc, Valencia, Calif.), following the manufacture's instructions (final volume 200 μL). DNA was extracted from the D. ethenogenes strain 195 culture following dechlorination of DCE. […]

The subject of the next test is KB-1/VC culture. Description: Batch dechlorination and growth kinetics, KB-1/VC culture. In kind it is cell-based, Dehalococcoides-like microorganisms. The note with it: for Maximum Growth Rate: 95% confidence interval.
From the text: (§2) Stock cultures. The Victoria mixed culture, containing strain VS, was maintained in a closed continuously stirred tank reactor (CSTR) as previously described. A VC enrichment of this culture, maintained over 5 years, was also used in these investigations. Liquid cultures of the three other cultures evaluated (Pinellas, KB-1/VC, and Dehalococcoides ethenogenes strain 195) were kept in anaerobic bottles, stored in an anaerobic chamber (10% H2, 10% CO2, 80% N2). The bottles were amended with TCE (1-3 μL neat liquid), VC (250 μL gas), and PCE (1-3 μL neat liquid) being added to each, respectively, approximately every two weeks.
(§3) Batch studies. For the experimental portion of this research, two studies were undertaken, one a comparative VC growth study, and the other a comparative growth and substrate utilization study with different chlorinated ethenes. These studies compared the dechlorination abilities of Dehalococcoides ethenogenes strain 195 and the Dehalococcoides-like microorganisms in the three mixed cultures (Victoria, KB-1/VC, and Pinellas).
(§4) For the first study, a VC enriched inoculum was first developed for each of the three mixed cultures. Here, bottles (120 mL) were filled with 60 mL of anaerobic media in an anaerobic chamber as previously described, and inoculated with 200 μL of each stock culture. Gaseous VC (99.5%) was added with a gas tight syringe (200 μL). The cultures were then moved to a shaker (60-80 rpm) in an anaerobic chamber (20±2° C.). Immediately after 5 μmol of ethene was formed in a bottle, 200 μL of the culture was transferred to fresh media (60 mL), in triplicate, and VC was again added (200 μL). The inoculum for the growth study was that formed after exactly 4 μmol of ethene was produced following this second transfer. To compare growth rates on VC, a range in concentration of each inocula (0.1, 0.3, 1, 3, 9 mL) was transferred to fresh media (as above) to result in a liquid volume of 60 mL, and gaseous VC (200 μL) was added to each. […] Hydrogen served as the electron donor and was non-limiting (>3%) in all studies. Headspace samples were periodically removed by syringe (250 μL) for chlorinated ethene analyses.
as §1
(§5) Comparative dechlorination and growth kinetics. With mixed cultures, the concentration of organisms carrying out a particular reaction is generally unknown and difficult to determine. […]

Another test relates to Pinellas culture. Briefly: Batch dechlorination and growth kinetics, Pinellas culture. It counts as cell-based, Dehalococcoides-like microorganisms. The note with it: for Maximum Growth Rate: 95% confidence interval.
From the text: as §2, §3, §4, §1, §5

Test [2] concerns Victoria mixed culture, containing strain VS. Description: Batch dechlorination and growth kinetics, Victoria mixed culture. In kind it is cell-based, Dehalococcoides species strain VS. The note with it: for Maximum Growth Rate: VS Mixed (Victoria) culture, 95% confidence interval, least-squares model fit.
From the text: as §2, §3, §4, §1, §5

Where “and” joins values, the source holds several entries; their conditions need not be identical. Equal values may be shown once. Marks after values point to notes of the source that are not given here.

As for `ClC=C(Cl)Cl` [TCE, trichloroethene], the “Half velocity coefficient KT” value worked out at 12.4 ± 0.6 µM in test [1] (Highly enriched culture), 10.0 ± 2.0 µM in the test on KB-1/VC culture, 10.5 ± 0.7 µM in the test on Pinellas culture and 9.0 ± 0.4 µM in test [2] (VS Mixed culture). Further, the “Maximum Growth Rate” value was 0.35 day⁻¹ and 0.35 ± 0.13 day⁻¹ in test [1] (Highly enriched strain VS culture, 95% confidence interval); 0.33 ± 0.06 day⁻¹ in the test on KB-1/VC culture; 0.49 day⁻¹ and 0.49 ± 0.03 day⁻¹ with Pinellas culture; 0.35 ± 0.07 day⁻¹ in test [2]. Further, the “Final VC rate” value in test [1] is 312 µmol·days/L and 204 µmol·days/L. In addition, the Final cells in test [1] is 4.0 × 10^11 cell L^−1 and 2.6 × 10^11 cell L^−1. Further, the “Initial VC rate” value in test [1] was 28 ± 2^a nmol (d · L)^−1. For the same molecule, the Mass dechlorinated in test [1] is 10.94 µmol and 8.97 µmol. In test [1], the “Growth yield by competitive PCR” value is recorded as 4.7±0.3×10^8 cell/μmol Cl^−.

As for `C=CCl` [VC, vinyl chloride], in test [1], the “Final VC rate” value is 228 µmol·days/L and 204 µmol·days/L; the Final cells is 2.9 × 10^11 cell L^−1 and 2.6 × 10^11 cell L^−1; the “Initial VC rate” value is given as 28 ± 2^a nmol (d · L)^−1; the Mass dechlorinated is 10.39 µmol and 10.52 µmol. Further, the “Growth yield by competitive PCR” value in test [1] is 5.2±0.4×10^8 cell/μmol Cl^−. For the same molecule, the “Maximum Growth Rate” value in the test on KB-1/VC culture was 0.42 day⁻¹ and 0.42 ± 0.03 day⁻¹. Also, the “time to form 5 μmol of ethene” value with KB-1/VC culture (200 μL VC) was found to be 18 days. For the same molecule, the “Maximum Growth Rate” value in the test on Pinellas culture was 0.28 day⁻¹ and 0.28 ± 0.01 day⁻¹. The “time to form 5 μmol of ethene” value in the test on Pinellas culture (200 μL VC) is reported as 21 days. The “Maximum Growth Rate” value in test [2] is 0.49 day⁻¹ and 0.49 ± 0.02 day⁻¹. Further, in test [2] (Victoria culture, 200 μL VC), the “time to form 5 μmol of ethene” value was found to be 18 days.
